Laboratory results: ChEMBL document CHEMBL4308884, “Development and characterization of a CNS-penetrant benzhydryl hydroxamic acid class IIa histone deacetylase inhibitor” (Bioorg Med Chem Lett, 2019)
≈ marks a conversion by molar mass, not a printed value.

Columns and labels:
[1] = Apparent passive permeability in MDCK cells at 10 uM after 1 hr by LC-MS/MS analysis; type: ADME, cell-based, Canis lupus familiaris; conditions: dog; for Papp: mdck, 1 h, 10 µM
[2] = Kinetic aqueous solubility of the compound; type: physicochemical; conditions: buffer; read-out: Kinetic_solubility

Row | solubility kinetic [2] [µM] | Papp at 1 h, 10 µM ([1]; MDCK) [×10⁻⁶ cm/s] | Compound | Papp [1]
1 | 141 (≈ 55.2 µg/mL) |  | O=C(NO)C(c1ccc(-c2nccc(C(F)(F)F)n2)cc1)c1ccccc1F (stereo unspecified) | Nd(Toxic)
2 | 52 (≈ 17.5 µg/mL) |  | Cc1cnc(-c2ccc(C(C(=O)NO)c3ccccc3F)cc2)nc1 (stereo unspecified) | Nd(Toxic)
3 | 164 (≈ 53 µg/mL) | 46.4 | O=C(NO)C(c1ccc(-c2cnccn2)cc1)c1ccccc1F (stereo unspecified) | 
